Experimental data published in US9512139B2, “Conformationally constrained, fully synthetic macrocyclic compounds” (POLYPHOR AG, priority 2009, dated 2016).

Experiments:
[1] = target: T1, 5-hydroxytryptamine 2B (5-HT2B) Receptor (Homo sapiens, UniProt P41595); experiment: Ca2+ assay (FLIPR) for the GPCR 5-HT2B receptor, agonist and antagonist mode; type: cell-based
T1 construct: host or cells: Ca2+ optimized hematopoietic cell lines (rat)
Experimental: Ca^2+ Assays for the GPCRs Motilin Receptor, Prostaglandin F (FP) Receptor, 5-hydroxytryptamine 2B (5-HT2B) Receptor, and Purinoreceptor P2Y1
Assays were performed using on a FLIPR^TETRA fluorometric imaging plate reader (Molecular Devices) with ScreenWorks Version 2 (Molecular Devices) as device operating and data analysis software.
Dose dependent agonist and antagonist activities were determined. Percentage activation and percentage inhibition values were determined.
Percentage activation was determined upon initial addition of the sample compounds followed by 10 minutes incubation at 25° C. Following compound incubation, reference agonists were added at EC80 to determine percentage inhibition.
Reference agonists were purchased from reputable commercial vendors and prepared according to each ligand's specifications. All handling of ligands were done to ensure proper control throughout the experiments.
Example compounds were weighed on a Microbalance (Mettler MX5) and dissolved in 100% DMSO to a final concentration of 2.5 mM and subsequently diluted into the assay buffer.
The Assay buffer was a supplemented HBSS (Hank's Balanced Salt Solution). HBSS was supplemented with 20 mM HEPES (4-(2-hydroxyethyl)-piperazin-1-ethansulfonic acid) and 2.5 mM Probenecid (Sigma P8761).
GPCR assays were performed using Ca^2+ optimized hematopoietic cell lines (rat) with cultures never exceeding 90% confluency. […] After seeding, the assay plates were incubated for forty-five (45) minutes at room temperature. After room temperature incubation, the assay plates were incubated at 37° C. 5% CO2 for 24 hours prior to assaying.
All GPCR assays were performed using Fluo-8 Ca^2+ dye. Ca^2+ dye was prepared at 1× dye concentration in GPCR assay buffer. After 24 hours of incubation, cells were washed with GPCR assay buffer, and then Ca^2+-dye (100 μL/well) was added.
The plates were incubated for 90 minutes at 30° C. 5% CO2 prior to FLIPR assay.
Compound plates were prepared to add 50 μL/well during the agonist assay mode. During the FLIPR assay, 50 μL/well from the compound plate was diluted 3-fold into the existing 100 μL/well from the dye loading step. Therefore all compounds were prepared as 3× the final concentration desired in the assay.
After completion of the first single addition assay run, assay plate was removed from the FLIPR Tetra and placed at 25° C. for seven (7) minutes before antagonist assay.
Using the EC80 values determined during the agonist assay, all pre-incubated sample compound and reference antagonist (if applicable) wells were stimulated at the EC80 of the reference agonist. As reference ligands for the first three assays their obvious natural ligands motilin, prostaglandin F2α, and serotonin (5-HT, 5-Hydroxytryptamine) were used; and for the P2Y1 assay 2MeSATP (2-methyl-thio-adeno-sine 5′-triphosphate, i.e. (2R,3S,4R)-5-(6-amino-2-methylsulfanyl-purin-9-yl)-3,4-dihydroxy-tetrahydrofuran-2-yl]methyl (hydroxy-phosphonooxy-phosphoryl)hydrogen phosphate) was applied.
After the addition of the reference agonist fluorescence was monitored for 180 sec using FLIPR Tetra.
Data Analysis and Results:
From the FLIPR data, with negative control correction enabled, the maximum statistic for each well was exported and percentage activation relative to Emax control was calculated.

in vitro [2] = type: in vitro ADME, human; conditions: human, plasma, 10 µM; for Plasma Stability 240 min hum [% remain.]: 4 h
in vitro [3] = type: in vitro ADME, mouse; conditions: both, CD-1, mouse, plasma, 10 µM; for Plasma Stability 240 min mouse [% remain.]: 4 h
[4] = Metabolic stability assay, human microsomes; type: in vitro ADME; conditions: human, microsomes; for half-life at 10 µM: both sexes; for Metabolic Stability 60 min hum [% remain.]: both, 1 h, 10 µM
[5] = Metabolic stability assay, CD-1 mouse microsomes; type: in vitro ADME; conditions: both, CD-1, mouse, microsomes, 10 µM; for Metabolic Stability 60 min mouse [% remain.]: 1 h
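Wherever Plasma Stability 240 min mouse [% remain.] is given: sodium citrate stabilized mouse plasma, parent compound quantified by HPLC/MS/MS relative to its peak area at time zero, run in triplicate.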
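Wherever Plasma Stability T½ [min] mouse is given: sodium citrate stabilized mouse plasma, parent compound quantified by HPLC/MS/MS relative to its peak area at time zero, run in triplicate.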

T1 sequence (P41595 whole entry, species assumed): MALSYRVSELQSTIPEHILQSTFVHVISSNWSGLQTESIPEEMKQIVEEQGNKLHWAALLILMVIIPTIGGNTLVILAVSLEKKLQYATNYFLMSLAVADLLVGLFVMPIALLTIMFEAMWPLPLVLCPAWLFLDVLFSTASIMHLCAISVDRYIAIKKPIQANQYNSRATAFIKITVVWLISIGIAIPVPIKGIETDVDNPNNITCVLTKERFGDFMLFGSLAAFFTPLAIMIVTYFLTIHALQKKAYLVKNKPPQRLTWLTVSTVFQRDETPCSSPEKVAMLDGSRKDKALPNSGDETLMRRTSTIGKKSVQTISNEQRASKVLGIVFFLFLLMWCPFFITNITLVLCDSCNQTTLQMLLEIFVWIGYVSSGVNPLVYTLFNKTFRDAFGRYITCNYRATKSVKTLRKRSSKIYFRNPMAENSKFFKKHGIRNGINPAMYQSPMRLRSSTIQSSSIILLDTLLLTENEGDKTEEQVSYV

Compound | EC50 [1] | Agonist activity [% activation at 12.5 μM] [1] | Plasma Stability T½ [min] hum (in vitro [2]) | Plasma Stability 240 min hum [% remain.] (in vitro [2]) | Plasma Stability T½ [min] mouse (in vitro [3]) | Plasma Stability 240 min mouse [% remain.] (in vitro [3]) | half-life at 10 µM [4] | Metabolic Stability 60 min hum [% remain.] [4] | Metabolic Stability T½ [min] mouse [5] | Metabolic Stability 60 min mouse [% remain.] [5]
CN(C)CC(=O)N[C@H]1C[C@H]2COc3ccc(F)cc3C(=O)N(C)[C@H](C(=O)NCCc3c[nH]c4ccccc34)CCC(=O)N(C)CC(=O)N2C1 [Ex. 16, (2S,11S,19aS)-2-{[2-(dimethylamino)acetyl]amino}-15-fluoro-N-[2-(1H-indol-3-yl)ethyl]-7,12-dimethyl-5,8,13-trioxo-2,3,6,7,8,9,10,11, 12,13,19,19a-dodecahydro-1H,5H-pyrrolo [2,1-c] [1,4,7,12]benzoxatriazacyclopentadecine-11-carboxamide] | 6.6 µM | 45% | > 240 min | 95 % remain. | > 240 min | 97 % remain. | 0.633 h | 31 % remain. | > 60 min | 79 % remain.
CN1CC(=O)N2C[C@@H](NC(=O)OC(C)(C)C)C[C@H]2COc2ccc(F)cc2C(=O)N(C)[C@H](C(=O)NCCc2c[nH]c3ccccc23)CCC1=O [Ex. 30, tert-butyl N-[(2S,11S,19aS)-15-fluoro-11-({[2-(1H-indol-3-yl)ethyl]amino}carbonyl)-7,12-dimethyl-5,8,13-trioxo-2,3,6,7,8,9,10,11,12,13,19,19a-dodecahydro-1H,5H-pyrrolo[2,1-c] [1,4,7,12]benzoxatriazacyclopentadecin-2-yl]carbamate] | 3.3 µM | 48% | > 240 min | 85 % remain. | > 240 min | 100 % remain. | 0.367 h | 2 % remain. | > 60 min | 55 % remain.
CC(=O)N[C@H]1C[C@H]2COc3ccc(F)cc3C(=O)N(C)[C@H](C(=O)NCCc3c[nH]c4ccccc34)CCC(=O)N(C)CC(=O)N2C1 [Ex. 9, (2S,11S,19aS)-2-(acetylamino)-15-fluoro-N-[2-(1H-indol-3-yl)ethyl]-7,12-dimethyl-5,8,13-trioxo-2,3,6,7,8,9,10,11,12,13,19,19a-dodecahydro-1H,5H-pyrrolo[2,1-c] [1,4,7,12]benzoxatriazacyclopentadecine-11-carboxamide] | 12 µM | 48% | > 240 min | 99 % remain. | > 240 min | 93 % remain. | 0.533 h | 20 % remain. | > 60 min | 80 % remain.
